Results as given in patent US7253286B2, “Nitrogen-containing aromatic derivatives” (Eisai Co., Ltd, priority 2000, dated 2007).

Legend:
VEGFR2 = molecular target: T1, VEGFR2 (Homo sapiens, UniProt P35968); experiment: Inhibition against VEGFR2 kinase (receptor tyrosine kinase activity, HTRF method); format: biochemical; conditions: His6-VEGFR2 cytoplasmic domain, biotin-poly(GT) substrate, ATP, 30° C. 10 minutes, read-out: IC50 (concentration required for 50% inhibition of VEGFR2 kinase activity)
T1 construct: coding for the cytoplasmic domain, beginning with lysine 791 and including the termination codon; made in house; host or cells: Sf9 insect cells (baculovirus, pFastBacHis)
T1 sequence (P35968 786-1356 limits assumed): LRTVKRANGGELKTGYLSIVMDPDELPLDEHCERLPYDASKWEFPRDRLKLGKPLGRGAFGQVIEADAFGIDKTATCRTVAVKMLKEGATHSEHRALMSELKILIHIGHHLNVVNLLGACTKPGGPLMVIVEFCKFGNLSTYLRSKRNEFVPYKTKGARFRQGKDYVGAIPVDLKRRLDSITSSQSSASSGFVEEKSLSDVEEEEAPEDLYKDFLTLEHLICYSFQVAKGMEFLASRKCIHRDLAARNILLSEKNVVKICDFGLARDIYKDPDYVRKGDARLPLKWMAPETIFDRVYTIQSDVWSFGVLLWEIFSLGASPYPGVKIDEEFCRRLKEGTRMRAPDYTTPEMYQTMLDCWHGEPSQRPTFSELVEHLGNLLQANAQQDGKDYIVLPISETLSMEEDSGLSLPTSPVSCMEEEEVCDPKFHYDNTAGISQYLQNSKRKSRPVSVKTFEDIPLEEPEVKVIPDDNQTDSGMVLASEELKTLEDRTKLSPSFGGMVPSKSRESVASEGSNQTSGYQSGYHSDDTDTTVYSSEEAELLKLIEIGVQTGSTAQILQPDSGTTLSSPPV
Description: Measurement of Inhibition Against Receptor Tyrosine Kinase Activity
This assay is used to determine inhibition of a test substance on tyrosine kinase activity. DNA coding for the cytoplasmic domain of VEGFR2 is obtained by total cDNA synthesis (Edwards M, International Biotechnology Lab 5(3), 19–25, 1987) or by cloning. Expression in an appropriate expression system can produce a polypeptide with tyrosine kinase activity. […] For VEGFR2 (Genbank Accession No. L04947), the 1.7 kb DNA fragment described by Terman et al. (Oncogene, 6(9), 1677–1683, 1991), coding for the cytoplasmic domain, beginning with lysine 791 and including the termination codon, was isolated from a human placental cDNA library (purchased from Clontech Laboratories, Inc.) and cloned in a Baculovirus expression vector (pFastBacHis, purchased from GIBCO BRL) The recombinant construct was transfected into insect cells (Spondoptea frugiperda9 (Sf9)) to prepare a recombinant Baculovirus. (Instructions for preparation and use of recombinant Baculovirus maybe found in standard texts, such as “Bac-To-Bac Baculovirus Expression System” (GIBCO BRL).) The cytoplasmic fragment starting from lysine 398 (FGFR1, Genbank Accession No. X52833), the cytoplasmic fragment starting from lysine 558 (PDGFRβ, Genbank Accession No. M21616) or the cytoplasmic fragment starting from lysine 974 (HGFR, Genbank Accession No. J02958) may be cloned and expressed by the same method for use in assays for other tyrosine kinases. EGFR was purchased from Sigma Co. (Product No. E-2645).
For expression of the VEGFR2 tyrosine kinase, Sf9 cells were infected with the VEGFR2 recombinant virus and collected after 48 hours. The collected cells were rinsed with ice-cooled phosphate buffered saline (PBS) and then resuspended using 20 ml of ice-cooled Lysis Buffer (50 mM Tris-HCl (pH 8.5), 5 mM 2-mercaptoethanol, 100 mM KCl, 1 mM phenylmethylsulfonyl fluoride, 1% (v/v) NP-40) per 1.5×10^8 cells. The suspension was centrifuged at 12,000 rpm for 30 minutes at 4° C. and the supernatant was obtained.
The supernatant was added to a Ni—NTA agarose column (3 ml, purchased from Qiagen) equilibrated with Buffer A {20 mM Tris-HCl (pH 8.5), 5 mM 2-mercaptoethanol, 500 mM KCl, 20 mM imidazole, 10% (v/v) glycerol}. The column was washed with 30 ml of Buffer A, and then with 6 ml of Buffer B {20 mM Tris-HCl (pH 8.5), 5 mM 2-mercaptoethanol, 1M KCl, 10% (v/v) glycerol}, and finally with 6 ml of Buffer A. After washing, it was eluted with 6 ml of Buffer C {20 mM Tris-HCl (pH8.5), 5mM2-mercaptoethanol, 100 mMKCl, 100 mM imidazole, 10% (v/v) glycerol}. The eluate was placed on a dialysis membrane (purchased from Spectrum Laboratories) and dialyzed with a dialysis buffer {20 mM Tris-HCl (pH 7.5), 10% (v/v) glycerol, 1 mM dithiothreitol, 0.1 mM Na3VO4, 0.1 mM EGTA}. After dialysis, it was supplied for SDS-electrophoresis, and the recombinant protein (His6-VEGFR2, cytoplasmic domain of VEGFR2 fused with 6 histidine residues at the N-terminus) detected at a molecular weight of approximately 100 kDa with Coumassie Brilliant Blue staining was assayed using BSA (bovine serum albumin, purchased from Sigma Co.) as the standard substance, and stored at −80° C. until use. Using the same method for the cytoplasmic domains of FGFR1, PDGFRβ and HGFR yielded respective recombinant proteins fused with 6 histidine residues at the N-termini (His6-FGFR1, His6-PDGFRβ or His6-HGFR).
The tyrosine kinase reaction was conducted as follows. […]

[1] = test system: Human Umbilical Vein Endothelial Cells (HUVECs); experiment: Inhibition against sandwich tube formation by vascular endothelial cells in response to stimulation by VEGF; format: cell-based; conditions: HUVEC in collagen gel sandwich, stimulation by VEGF (25 ng/ml VEGF and 10 ng/ml EGF), 4th day, total tube length, read-out: IC50 (concentration required for 50% inhibition of tube formation)
Procedure, shortened: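 HUVECs were sandwiched between collagen gel layers in serum-free medium with 25 ng/ml VEGF plus 10 ng/ml EGF, with test substance added above the gel at 37 °C. On day 4 tubes were MTT-stained and total tube length measured by image analysis. IC50 is the concentration halving tube length relative to no-compound wells.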

SMILES | IC50 (VEGFR2) | IC50 [1]
O=C(Nc1ccc(Oc2ncnc3[nH]c(-c4ccccn4)cc23)cc1F)NC1CC1 [Example 283, 1-Cyclopropyl-3-[2-fluoro-4-(6-(pyridin-2-yl)-7H-pyrrolo[2,3-d]pyrimidin-4-yloxy)phenyl]urea] | 26 nM | 36 nM
COc1cc2nccc(Oc3ccc(NC(=O)Nc4ccc(F)cc4)cc3)c2cc1NS(C)(=O)=O [Example 266, N-(4-{4-[3-(4-Fluorophenyl)ureido]phenoxy}-7-methoxyquinolin-6-yl)methanesulfoneamide] | 5.4 nM | 0.6 nM
COc1cc2nccc(Oc3ccc(NC(=O)Nc4ccc(F)cc4)cc3)c2cc1NC(C)=O [Example 265, N-(4-{4-[3-(4-Fluorophenyl)ureido]phenoxy}-7-methoxyquinolin-6-yl)acetamide] | 6.2 nM | 0.6 nM
O=C(Nc1ccc(Oc2ncnc3[nH]c(-c4ccc(OC[C@H](O)CN5CCCC5)cc4)cc23)cc1Cl)NC1CC1 [Example 159, 1-(2-Chloro-4-{6-[4-((2R)-2-hydroxy-3-pyrrolidinopropoxy)phenyl]-7H-pyrrolo[2,3-d]pyrimidin-4-yloxy]phenyl}-3-cyclopropylurea] | 25 nM | 0.6 nM
COCCOc1cc2nccc(Oc3ccc(NC(=O)NC4CC4)cc3)c2cc1C(N)=O [Example 116, 4-(4-((Cyclopropylamino)carbonyl)aminophenoxy)-7-(2-methoxyethoxy)-6-quinolinecarboxamide] | 4.2 nM | 8.1 nM
COc1ccc(NC(=O)Nc2ccc(Oc3ccnc4cc(OCCCc5ccncc5)c(C#N)cc34)cc2)cc1 [Example 1] | 51 nM | 310 nM
COCCOc1cc2nccc(Sc3ccc(NC(=O)Nc4ccc(F)cc4)s3)c2cc1C#N [Example 253, 1-{5-[6-Cyano-7-(2-methoxyethoxy)-quinolin-4-ylsulfanyl]thiophen-2-yl}-3-(4-fluorophenyl)urea] | 23 nM | 40 nM
COc1cc2nccc(Oc3ccc(NC(=O)NC4CC4)cc3)c2cc1C(N)=O [Example 121, 4-(4-((Cyclopropylamino)carbonyl)aminophenoxy)-7-methoxy-6-quinolinecarboxamide] | 8.7 nM | 42 nM
COCCOc1cc2nccc(Oc3ccc(NC(=O)Nc4ccccc4)cc3)c2cc1C#N [Example 65, N-(4-(6-cyano-7-(methoxyethoxy)-4-quinolyl)oxyphenyl)-N′-phenylurea] | 15 nM | 5.9 nM
CS(=O)(=O)NCCCOc1cc2nccc(Oc3ccc(NC(=O)Nc4ccc(F)cc4)c(F)c3)c2cc1C#N [Example 111, N-(3-(6-Cyano-4-(3-fluoro-4-((4-fluoroanilino)carbonyl)aminophenoxy)-7-quinolyl)oxypropyl)methanesulfonamide] | 21 nM | –
COc1cc2nccc(Oc3ccc(NC(=O)Nc4ccc(F)cc4F)cc3)c2cc1C#N [Example 36, N-(4-(6-Cyano-7-methoxy-4-quinolyl)oxyphenyl)-N′-(2,4-difluorophenyl)urea] | 14 nM | –
O=C(CCCN1CCC(O)CC1)Nc1cc(Oc2ccc3c(ccn3C(=O)NC3CC3)c2)ccn1 [Example 187, N1-Cyclopropyl-5-[(2-{[4-(4-hydroxypiperidino)butanoyl]amino}-4-pyridyl)oxy]-1H-1-indolecarboxamide] | 14 nM | –
O=C(Nc1ccc(F)cc1)Nc1ccc(Oc2ccnc3[nH]c(=O)ccc23)cc1 [Example 183, N-(4-Fluorophenyl)-N′-{4-[(7-oxo-7,8-dihydro[1,8]naphthyridin-4-yl)oxy]phenyl}urea] | 29 nM | –
COCCOc1cc2nccc(Oc3ccc(NC(=O)Nc4cccc(S(C)(=O)=O)c4)cc3)c2cc1C#N [Example 21, N-(4-(6-Cyano-7-(2-methoxyethoxy)-4-quinolyl)oxyphenyl)-N′-(3-(methylsulfonyl)phenyl)urea] | 4.3 nM | –
N#Cc1cc2c(Oc3ccc(NC(=O)Nc4ccc(F)cc4)cc3)ccnc2cc1OCCCN1CCOCC1 [Example 31] | 17 nM | –
COCCOc1cc2nccc(Oc3ccc(NC(=O)Nc4cccc(OC)c4)cc3)c2cc1C#N [Example 14, N-(4-(6-Cyano-7-(2-methoxyethoxy)-4-quinolyl)oxyphenyl)-N′-(3-methoxyphenyl)urea] | 2.7 nM | –

The next lines start with results.

IC50 (VEGFR2) | SMILES | IC50 [1]
2.8 nM | COc1cc2nccc(Oc3ccc(NC(=O)NC4CC4)c(Cl)c3)c2cc1C(=O)NCC#N [Example 441, N6-Cyanomethyl-4-(3-chloro-4-(((cyclopropylamino)carbonyl)amino)phenoxy)-7-methoxy-6-quinolinecarboxamide] | 3.6 nM
4.6 nM | CONC(=O)c1cc2c(Oc3ccc(NC(=O)Nc4nccs4)cc3)ccnc2cc1OC [Example 346, N6-Methoxy-7-methoxy-4-(4-(((1,3-thiazol-2-ylamino)carbonyl)amino)phenoxy)-6-quinolinecarboxamide] | 25 nM
2.6 nM | COCCOc1cc2nccc(Oc3ccc(NC(=O)NC4CC4)c(Cl)c3)c2cc1C(N)=O [Example 381, 4-(3-Chloro-4-(cyclopropylaminocarbonyl)aminophenoxy)-7-(2-methoxyethoxy)-6-quinolinecarboxamide] | 4.7 nM
5.3 nM | COc1cc2nccc(Oc3ccc4c(ccn4C(=O)NCCF)c3)c2cc1C(N)=O [Example 314, 6-Carbamoyl-4-[1-(2-fluoroethylcarbamoyl)1H-indol-5-yloxy]-7-methoxyquinoline] | 4.2 nM
9.9 nM | CONC(=O)c1cc2c(Oc3ccc(N(C)C(=O)Nc4ccc(F)cc4)cc3)ccnc2cc1OC [Example 437, N6-Methoxy-4-(4-(((4-fluoroanilino)carbonyl)(methyl)amino)phenoxy)-7-methoxy-6-quinolinecarboxamide] | –
9 nM | NC(=O)c1cc2c(Oc3ccc(NC(=O)NC4CC4)c(Cl)c3)ccnc2cc1OCCCN1CCOCC1 [Example 382, 4-(3-Chloro-4-(cyclopropylaminocarbonyl)aminophenoxy)-7-(3-(4-morpholino)propoxy)-6-quinolinecarboxamide] | 4.6 nM
22 nM | COc1cc2nccc(Oc3ccc(N(C)C(=O)Nc4ccc(F)cc4)cc3)c2cc1C(=O)NC1CC1 [Example 435] | –
5.9 nM | CCCC(=O)Nc1cc(Oc2ccc(NC(=O)Nc3ccc(F)cc3)cc2)ccn1 [Example 463, N-[4-(2-Butanoylaminopyridin-4-yl)oxyphenyl]-N′-(4-fluorophenyl)urea] | 26 nM
3.5 nM | COCCNC(=O)c1cc2c(Oc3ccc(NC(=O)NC4CC4)c(Cl)c3)ccnc2cc1OC [Example 398, N6-(2-Methoxyethyl)-4-(3-chloro-4-(((cyclopropylamino)carbonyl)amino)phenoxy)-7-methoxy-6-quinolinecarboxamide] | –
